From patent US20230407304A1, “USE OF MICRORNA INHIBITION TO PREVENT AND TREAT OSTEOARTHRITIS AND OTHER INFLAMMATORY DISEASES” (VIRGINIA COMMONWEALTH UNIVERSITY, priority 2020, published 2023)
“Also recorded” adds a separate entry of the source.

Columns and labels:
[1] = test system: rat articular chondrocytes (rArCs); test: Stimulation of rArCs with IL-1β or TNF-α (total DNA, MMP-13, PGE2); format: cell-based; settings: 10 ng/mL IL-1β or 5 and 10 ng/mL TNF-α, 24 hours, vs control
Method: FIGS. […] (FIG. 6A) Total DNA was measured from the cell monolayer and (FIG. 6B) MMP-13, and (FIG. 6C) PGE2 proteins were measured from the conditioned media. Groups not sharing a letter (D, C, B or A over bar) are statistically significant using an alpha=0.05.
Rat articular chondrocytes (rArCs) were isolated using a previously established protocol (see Scott, supra). Briefly, rArCs were isolated from femoral condyles and tibial plateaus from 100-125 g male Sprague Dawley rats. Cartilage was sterilely sliced from the articular surfaces using a surgical blade and placed in Dulbecco's modification of Eagle's medium with 1 g/L glucose, 50 U/mL penicillin and streptomycin (pen-strep) (DMEM). […]
rArCs were plated at a seeding density of 15,000 cells/cm^2 and fed with DMEM supplemented with 10% FBS and 50 U/mL pen-strep. […] MMP-13 (ANASpec, Fremont, CA) and PGE2 (R&D Systems) were measured in the conditioned media by a microplate reader at ex/em 490 nm/520 nm, and 450 nm absorbance, respectively, in accordance with the manufacturer's directions. […] Cell layers were thawed, and mechanically lysed by ultrasonication (40V, 10s/well) (VCX-120; Vibra-cell, Newtown, CT) and DNA was measured using QuantiFluor dsDNE system kit (Promega, Madson, WI) and quantified on a fluorescence plate reader at ex/em 504 nm/531 nm. […]

[2] = test system: rat articular chondrocytes (rArCs); test: WNT/β-catenin agonist or antagonist treatment of rArCs with or without IL-1β; format: cell-based
WNT/β-catenin = settings: literature; cited from earlier work
[3] = test system: rat articular chondrocytes (rArCs); test: miR mimic or inhibitor transfection of rArCs with or without TNF-α stimulation; format: cell-based
Method: FIGS. 7A-7F show assessment of miR-122 and miR-451 transfection or inhibition on TNF-α stimulated rat articular chondrocytes. rArCs were transfected at 60% confluence with miR-122, miR-451, miR-122-inhibitor (122-Inh), miR-451 inhibitor (451-Inh), or an empty vehicle (Lipo) for 24 hours followed by 24 hours with or without 10 ng/mL TNF-α stimulation. (FIG. 7A, 7D) Total DNA was measured from the cell monolayer and (FIG. 7B, 7E) MMP-13 and (FIG. 7C, 7F) PGE2 proteins were measured from the conditioned media. Groups not sharing a letter (A, B or C over bar) are statistically significant using an alpha=0.05.
Rat articular chondrocytes (rArCs) were isolated using a previously established protocol (see Scott, supra). Briefly, rArCs were isolated from femoral condyles and tibial plateaus from 100-125 g male Sprague Dawley rats. Cartilage was sterilely sliced from the articular surfaces using a surgical blade and placed in Dulbecco's modification of Eagle's medium with 1 g/L glucose, 50 U/mL penicillin and streptomycin (pen-strep) (DMEM). After removing DMEM, cartilage was incubated with 0.05% trypsin (20 mins, 37° C.), rinsed with DMEM (50 U/mL pen-strep, 20 mins, 37° C.), and then digested with sterile-filtered 0.03% collagenase type II solution (Worthington Biochemical, Lakewood, NJ) in Hank's balanced salt solution (16 hrs, 37° C.). Digestion was quenched with an equal volume of DMEM containing 10% fetal bovine serum (FBS) and 50 U/mL pen-strep, strained through a 40 μm strainer (Greiner Bio-one, North Carolina), spun down at 500×g for 10 mins and plated at a seeding density of 15,000 cells/cm^2. These cells are at passage 0. All experiments used cells at passage 1.
rArCs were plated at a seeding density of 15,000 cells/cm^2 and fed with DMEM supplemented with 10% FBS and 50 U/mL pen-strep. Media were changed 24 hours after plating and then every 48 hours. After treatments described below, conditioned media were collected, centrifuged at 1,000×g for 10 mins to remove cellular debris, aliquoted, and stored at −80° C. until assayed. Cell monolayers were rinsed twice with 1 mL of 1×PBS, lysed in 500 μL of 0.05% Triton X-100, and frozen for later DNA analysis. MMP-13 (ANASpec, Fremont, CA) and PGE2 (R&D Systems) were measured in the conditioned media by a microplate reader at ex/em 490 nm/520 nm, and 450 nm absorbance, respectively, in accordance with the manufacturer's directions. Data were normalized to the DNA content of the cell monolayer. Cell layers were thawed, and mechanically lysed by ultrasonication (40V, 10s/well) (VCX-120; Vibra-cell, Newtown, CT) and DNA was measured using QuantiFluor dsDNE system kit (Promega, Madson, WI) and quantified on a fluorescence plate reader at ex/em 504 nm/531 nm. […]

articular chondrocytes = test: miR-122 / miR-451 transfection of articular chondrocytes in presence and absence of IL-1β; format: cell-based, rat
Description: The following Examples with these microRNAs established their functions in articular chondrocytes in the presence and absence of the inflammatory cytokine IL-1β. Since IL-1β signaling is a major contributor of OA, a well-established model of creating an osteoarthritic phenotype in vitro is to stimulate cell cultures with this cytokine. This study first established that both these microRNAs were elevated in OA in the bilateral ACLT model.
The miR-451 miR (SEQ ID NO:10) was originally chosen as a control miR but it had surprising and very specific functions. […] A series of transfections and inhibition experiments with these microRNAs confirmed that these changes were due to the microRNAs themselves.

[4] = test system: rat articular chondrocytes (rArCs); test: WNT/β-catenin agonist or antagonist treatment of rArCs with or without TNF-α; format: cell-based
[5] = miR transfection of articular chondrocytes
[6] = miR transfection plus IL-1β stimulation

Compound: IL-1β: inflammatory cytokine (Peprotech) used to stimulate chondrocyte cultures
- total DNA of cell monolayer [1]: no differences in DNA

Compound: Cn1ncnc2c(=O)n(C)c(=O)nc1-2 [PKF, PKF-118-310]
- total DNA [2]: drastically decreased total DNA
- IL-1β and TNF-α induced cartilage degradation (WNT/β-catenin): block IL-1β and TNF-α induced cartilage degradation

Compound: TNF-α
- total DNA of cell monolayer [1]: no differences in DNA

Compound: miR-122: mirVana miRNA mimic rno-miR-122-5p; UGGAGUGUGACAAUGGUGUUUG (UGGAGUGUGACAAUGGUGUUUG; listed as RNA, chemistry not given here)
- change of total DNA on TNF-α treatment in transfected cells ([3]; 14.5 nM mimic 24 hours, then 10 ng/mL TNF-α 24 hours): modestly decreased total DNA
- total DNA after mimic transfection ([3]; 14.5 nM mimic, 24 hours, vs Lipo control): increased total DNA
- proliferation (articular chondrocytes; [5]): stimulated proliferation
- total DNA (articular chondrocytes; [5]): increased total DNA
- IL-1β-stimulated MMP-13 (articular chondrocytes; [6]): able to prevent the IL-1β-stimulated increase
- IL-1β-stimulated PGE2 (articular chondrocytes; [6]): able to prevent the IL-1β-stimulated increase
- growth factor VEGF (articular chondrocytes; [6]): prevented IL-1β-stimulated increase
- inflammatory mediators, cytokines, chemokines (IL-1α, IL-2, IL-4, IL-6, GM-CSF, MIP-1A; RANTES for miR-122) (articular chondrocytes; [6]): prevented IL-1β-stimulated increase

Compound: PKF115-584
- IL-1β and TNF-α induced cartilage degradation (WNT/β-catenin): block IL-1β and TNF-α induced cartilage degradation

Compound: [Cl-].[Li+] [LiCl, lithium chloride]
- total DNA [4]: decreased total DNA to similar levels; also recorded: marginally decreased this
- total DNA [2]: decreased total DNA
